Laboratory results taken from paper PMC8704709, “Improved Anticancer Activities of a New Pentafluorothio-Substituted Vorinostat-Type Histone Deacetylase Inhibitor” (Pharmaceuticals, 2021).

Tests used:
Hep-G2 cells [1] = assay: Western blot in Hep-G2 cells (acetyl-H3, Apaf-1, Bcl-2); format: cell-based, human; details: 24 h
Description: Western blots were performed as described earlier. Cells were seeded in 100 mm petri dishes, grown to almost confluency, treated for 24 h, washed and frozen, followed by lysis with RIPA Buffer, added with one cOmplete™ Mini protease Inhibitor tablet/10 mL (Roche), and quantification with Pierce^TM BCA Protein Assay Kit (Thermo Fisher Scientific). Thereafter protein levels were normalized to untreated controls so equal protein loading of 20 µg/lane. Laemmli Buffer and β-mercaptoethanol were added before probes were desaturated at 96 °C for 10 min. First, 7.5% or 12% SDS gels (Biorad, Munich, Germany) were loaded with proteins and electrophoresis was done. Thereafter, proteins were transferred to activated polyvinylidene difluoride membranes (PVDF) by electroblotting. Finally, the membranes were blocked with 1% BSA and incubated with primary antibodies over night at 4 °C. […] Only the Jurkat cells had already a high level of α-tubulin in untreated cells and, thus, drug-induced changes were not detectable in these cells.
Blots were washed three times with 1% TBS-Tween and incubated with anti-mouse or anti-rabbit peroxidase-coupled anti-IgG secondary antibodies (1:5000–1:10,000) at room temperature for 60 min. Subsequently, antibody bondage was illustrated using Clarity and Clarity Max ECL Western Blotting Substrates (Biorad, Munich, Germany) for detection and Celvin-S developer (Biostep, software SnapAndGo Vs 1.8.1) for development. […] Values were normalized to β-actin expression, which served as a loading control and compared to untreated control expressions which was set at 1. The mean ± SEM of the relative values to control are illustrated with Graph Pad Prism 8.

DU145 cells [2] = assay: Unspecific cytotoxicity (LDH release); format: cell-based, human; details: 1–10 µM, 3 and 24 h
Description: To exclude unspecific cytotoxicity as the driving mode of action for antiproliferative effects, the release of lactate dehydrogenase (LDH) from DU145 cells was determined after 3 h and 24 h of treatment using the Cytotoxicity Detection Kit PLUS LDH (Roche Diagnostics GmbH, Mannheim, Germany). The assay was performed as described earlier. Cytotoxicity was determined by subtracting the percentage of LDH release into the supernatant under control conditions of those from treated samples. Measurements were performed in duplicate in n = 3 independent experiments and mean percentage changes ± SEM as compared to controls are shown.

human recombinant HDAC1 = target: T1, human recombinant HDAC1 (Homo sapiens, UniProt Q13547); assay: Fluorogenic subtype-specific HDAC assay; format: biochemical; details: cell-free enzymatic assay, 1–10 µM
T1 construct: purchased BPS Biosciences, San Diego, CA, USA
T1 sequence (Q13547 whole entry): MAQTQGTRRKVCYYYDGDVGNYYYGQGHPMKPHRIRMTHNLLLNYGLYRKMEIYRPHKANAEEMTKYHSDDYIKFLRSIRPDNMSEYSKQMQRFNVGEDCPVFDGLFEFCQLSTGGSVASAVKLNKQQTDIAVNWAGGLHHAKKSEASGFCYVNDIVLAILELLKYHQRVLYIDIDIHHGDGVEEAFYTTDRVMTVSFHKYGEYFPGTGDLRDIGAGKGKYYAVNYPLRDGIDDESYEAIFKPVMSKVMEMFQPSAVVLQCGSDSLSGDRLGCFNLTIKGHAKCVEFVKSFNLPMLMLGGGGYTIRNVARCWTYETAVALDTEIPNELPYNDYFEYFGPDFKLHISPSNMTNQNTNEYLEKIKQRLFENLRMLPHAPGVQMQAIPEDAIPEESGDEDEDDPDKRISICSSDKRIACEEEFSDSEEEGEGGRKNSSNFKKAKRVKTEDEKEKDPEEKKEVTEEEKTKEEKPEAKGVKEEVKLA

Hep-G2 cells [3] = assay: Cytosolic ROS formation (CellROX Orange fluorescence microscopy); format: cell-based, human; details: 6–24 h
Description: (§1) Untreated cells incubated with 1.6 mM H2O2 for 30 min served as positive controls. CellROX® Orange reagent (1 µM) was applied, when adding the test compounds. Formation of ROS was measured after 3 h, 6 h, 12 h (not shown) and 24 h using ZOE™ Fluorescent Cell Imager (Biorad, Munich, Germany). n = 3 independent experiments performed in triplicate for each condition.

DU145 cells [4] = assay: as above; format: cell-based, human; details: 6–24 h
Description: as §1

[5] = tested on: chorioallantoic membrane (CAM) of fertilized chicken eggs; assay: CAM assay (angiogenesis in fertilized chicken eggs); format: in vivo
Description: Anti-angiogenesis activity of SF5-SAHA was tested on the CAM (chorioallantoic membrane) of fertilized chicken eggs. The embryonic development was started by placing the eggs in a humidified (>60%) incubator in an upright position at a temperature of 37.8 °C. After 3 days, a hole of 2 mm was pierced in the eggshell top side in order to detach the developing CAM from the eggshell and let it sink into the allantoic cavity. After 10 days, the eggshell hole was broadened, and a silicone ring (1 cm Ø) was placed on the CAM, which was allowed to attach for 6 h. Then, 20 µL of SF5-SAHA containing medium or PBS (control) was added into the ring. The angiogenic states of the CAM were documented using a stereomicroscope equipped with a Kappa digital camera system (Distelkamp-Electronic, Kaiserslautern, Germany). Pictures were taken every 24 h until the finish of the experiment after 72 h. The CAM experiments were carried out with n = 3 eggs for each condition.

Jurkat cells = assay: IC50 by Annexin-V/7AAD dual staining, flow cytometry; format: cell-based; details: Homo sapiens, as determined after 48 h, means ± SEM, n ≥ 3, read-out: Growth inhibitory activity IC50, Jurkat
Description: (§2) Stock solutions (10 mM) prepared by dissolution in DMSO were stored at −20 °C. Working solutions were always freshly prepared before each experiment by dilution of stock solution with medium. The final DMSO concentration never exceeded 0.25%. Treatment-induced changes in cell number were determined by crystal violet (N-hexamethylpararosaniline from Sigma Aldrich) staining. 1000 cells/well (DU145) or 1500 cells/well (Hep-G2) were seeded in 96-well plates and maintained for adherence in an incubator (37 °C, 5% CO2, humidified atmosphere) for 48 h prior to the beginning of the treatment. […] Thereafter, the cells were fixed with 1% glutaraldehyde and stained with 0.1% crystal violet. The unbound dye was removed by rinsing with water. Bound crystal violet was solubilized with 0.2% Triton X-100 (Sigma-Aldrich). Light extinction of crystal violet, which increases linearly with the cell number, was analyzed at 570 nm using an ELISA-Reader (Dynex Technologies, Denkendorf, Germany). For T-cell leukemia/lymphoma cell lines apoptosis was determined using dual staining for Annexin-V and 7AAD via flow cytometry.

Hut78 cells = assay: as above; format: cell-based; details: Homo sapiens, as determined after 48 h, means ± SEM, n ≥ 3, read-out: Growth inhibitory activity IC50, Hut78
Description: as §2

[6] = tested on: caspase-3 activity in DU145 cells; assay: Apoptosis-specific caspase-3 activation (AC-DEVD-AMC cleavage); format: cell-based, human; details: 24 h treatment, 1–10 µM
Description: (§3) Changes in caspase-3 activity were measured by the cleavage of the fluorogenic substrate AC-DEVD-AMC (EMD Millipore, Billerica, MA, USA), as described previously. […] Subsequently, the lysates were incubated for 1 h at 37 °C with a substrate solution containing 20 μg/mL AC-DEVD-AMC, 20 mM HEPES, 10% glycerol and 2 mM DTT at pH 7.5.

[7] = tested on: caspase-3 activity in Hep-G2 cells; assay: as above; format: cell-based, human; details: 24 h treatment, 1–10 µM
Description: as §3

[8] = tested on: DU145 prostate carcinoma cells; assay: Antiproliferative activity assay (crystal violet staining); format: cell-based; details: Homo sapiens, DU-145, as determined after 48 h, means ± SEM, n ≥ 3, read-out: Growth inhibitory activity IC50, DU145
Description: as §2

[9] = tested on: Hep-G2 hepatoblastoma cells; assay: as above; format: cell-based; details: Homo sapiens, HepG2, as determined after 48 h, means ± SEM, n ≥ 3, read-out: Growth inhibitory activity IC50, Hep-G2
Description: as §2

SMILES: O=C(CCCCCCC(=O)Nc1ccc(S(F)(F)(F)(F)F)cc1)NO [SF5-SAHA]
- Bcl-2 expression (Hep-G2 cells [1]; 2 µM and 4 µM): downregulated
- Apaf-1 expression (Hep-G2 cells [1]; 2 and 4 µM): increased Apaf-1 expression
- acetylated histone H3 level (Hep-G2 cells [1]): dose-dependent rise of H3 acetylation
- LDH release (unspecific cytotoxicity) (DU145 cells [2]): did not induce significant increases in LDH release
- HDAC1 inhibition (comparison) (human recombinant HDAC1): comparable activities against HDAC1
- cytosolic ROS formation (Hep-G2 cells [3]): pronounced time- and dose-dependent increase in cytosolic ROS
- cytosolic ROS formation (DU145 cells [4]): pronounced time- and dose-dependent increase in cytosolic ROS
- toxicity to chicken embryos ([5]; doses of 5 and 10 µM): no toxicity
- antiangiogenic effect on CAM ([5]; topical application, 5 or 10 µM, 72 h): reduced vessel diameters and reduced numbers of vessel branches
- IC50 (Jurkat cells): 0.76 ± 0.06 µM
- IC50 (Hut78 cells): 2.4 ± 0.4 µM
- caspase-3 activation [6]: 5–6 times of the activity of untreated cells
- caspase-3 activation [7]: 5–6 times of the activity of untreated cells
- IC50 [8]: 0.73 ± 1.08 µM
- IC50 [9]: 1.79 ± 1.06 µM
